Experiments:
[1] = target: human recombinant purified LTC4 synthase (Homo sapiens (Human), UniProt Q16873); conditions: read-out: hLTC4 synthase IC50; Test B (Examples 62-65); substrate LTA4 methyl ester, product detected by LCMSMS; median of at least two determinations
[2] = target: Recombinant human LTC4 synthase (Homo sapiens (Human), UniProt Q16873); test: In vitro hLTC4 synthase enzyme assay (Test A); assay type: biochemical; conditions: Test A (Examples 1-61); substrate LTA4, LTC4 detected by HTRF; median of at least two determinations
Recombinant human LTC4 synthase, sequence (Q16873 whole entry): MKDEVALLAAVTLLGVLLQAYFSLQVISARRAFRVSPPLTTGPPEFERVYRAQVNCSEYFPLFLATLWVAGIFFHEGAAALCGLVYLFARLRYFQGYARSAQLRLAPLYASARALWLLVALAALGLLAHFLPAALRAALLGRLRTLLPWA
Protocol: In Vitro hLTC4 Synthase Enzyme Assay (Test A)
Recombinant human LTC4 synthase is expressed in Piccia pastoralis and the purified enzyme is dissolved in 25 mM tris-buffer pH 7.8 supplemented with 0.1 mM glutathione (GSH) and stored at −80° C.
The buffer is used as background. Runs are performed in duplicates.
The reaction is stopped after 1 min by addition of double the reaction volume of a stop solution (MeOH:H2O:acetic acid 70:30:1).
After 15 fold dilution in PBS, LTC4 formation is detected with LTC4 HTRF kit (Cisbio, cat. No 64LC4PEC) and a fluorescence reader. Typically 6 μL of sample is mixed with 3 μL of each of the HTRF reagents d2 and k and analyzed as described in the kit manual.

human recombinant purified LTC4 synthase, sequence (Q16873 whole entry): as above

IC50 [1] | IC50 [2] | SMILES
0.658 nM | – | COc1cc(N(CC(C)C)c2cc(C(F)(F)F)ccc2F)cnc1C(=O)[C@H]1C[C@@H]1C(=O)O [Example 65, (1S,2S)-2-[(5-{[2-Fluoro-5-(trifluoromethyl)phenyl](2-methylpropyl)amino}-3-methoxypyridin-2-yl)carbonyl]cyclopropanecarboxylic acid]
– | 18 nM | COc1nc(C(=O)C2CC2C(=O)O)ncc1N(CC1CC1)c1ccc(C)c2ccccc12 (stereo not shown) [Example 59, 2-(5-((Cyclopropylmethyl)(4-methylnaphthalen-1-yl)amino)-4-methoxypyrimidine-2-carbonyl)cyclopropanecarboxylic acid]
– | 263 nM | COCC1(CN(c2ccc(Cl)cc2)c2cnc(C(=O)C3CC3C(=O)O)c(OC)c2)CC1 (stereo not shown) [Example 4, 2-(5-((4-Chlorophenyl)((1-(methoxymethyl)cyclopropyl)methyl)amino)-3-methoxypicolinoyl)cyclopropanecarboxylic acid]
– | 331 nM | COc1cc(N(Cc2cccc(C(F)(F)F)c2F)CC2CC2)cnc1C(=O)C1CC1C(=O)O (stereo not shown) [Example 31, 2-(5-((Cyclopropylmethyl)(2-fluoro-3-(trifluoromethyl)benzyl)amino)-3-methoxypicolinoyl)cyclopropanecarboxylic acid]
– | 229 nM | COc1cc(N(CC2CC2)c2ccc(C(F)(F)F)c3cccnc23)cnc1C(=O)C1CC1C(=O)O (stereo not shown) [Example 35, 2-(5-((Cyclopropylmethyl)(5-(trifluoromethyl)quinolin-8-yl)amino)-3-methoxypicolinoyl)cyclopropanecarboxylic acid]
– | 34 nM | COc1cc(N(Cc2ccc(Cl)cc2)CC2CC2)cnc1C(=O)C1CC1C(=O)O (stereo not shown) [Example 13, 2-(5-((4-Chlorobenzyl)(cyclopropylmethyl)amino)-3-methoxypicolinoyl)cyclopropanecarboxylic acid]
– | 17 nM | COc1nc(C(=O)C2CC2C(=O)O)ncc1N(CC1CC1)c1ccc(Cl)c2ccccc12 (stereo not shown) [Example 56, 2-(5-((4-Chloronaphthalen-1-yl)(cyclopropylmethyl)amino)-4-methoxypyrimidine-2-carbonyl)cyclopropanecarboxylic acid]
– | 279 nM | COc1cc(N(CC2CC2)c2ccc(C)c3ncccc23)cnc1C(=O)C1CC1C(=O)O (stereo not shown) [Example 8, 2-(5-((Cyclopropylmethyl)(8-methylquinolin-5-yl)amino)-3-methoxypicolinoyl)cyclopropanecarboxylic acid]
– | 356 nM | COc1cc(N(CC2CC2)c2ccc(Cl)cc2)cnc1C(=O)C1CC1C(=O)NS(=O)(=O)C1CC1 (stereo not shown) [Example 40, 2-(5-((4-Chlorophenyl)(cyclopropylmethyl)amino)-3-methoxypicolinoyl)-N-(cyclopropylsulfonyl)-cyclopropanecarboxamide]
– | 96 nM | COc1cc(N(CC2CC2)c2cccc3ccccc23)cnc1C(=O)C1CC1c1nnn[nH]1 (stereo not shown) [Example 60, (2-(1H-Tetrazol-5-yl)cyclopropyl)(5-((cyclopropylmethyl)(naphthalen-1-yl)amino)-3-methoxypyridin-2-yl)methanone]
0.248 nM | – | COc1nc(N(CC(C)(C)F)c2cc(C(F)(F)F)ccc2F)cnc1C(=O)[C@H]1C[C@@H]1C(=O)O [Example 63, (1S,2S)-2-[(5-{(2-Fluoro-2-methylpropyl)[2-fluoro-5-(trifluoromethyl)phenyl]amino}-3-methoxypyrazin-2-yl)carbonyl]cyclopropanecarboxylic acid]
– | 636 nM | O=C(O)C1CC1C(=O)c1ccc(N(Cc2ccc(Cl)cc2)CC2CC2)cn1 (stereo not shown) [Example 55, 2-(5-((4-Chlorobenzyl)(cyclopropylmethyl)amino)picolinoyl)cyclopropanecarboxylic acid]
– | 152 nM | COc1cc(N(Cc2ccc(F)c(Cl)c2F)CC2CC2)cnc1C(=O)C1CC1C(=O)O (stereo not shown) [Example 30, 2-(5-((3-Chloro-2,4-difluorobenzyl)(cyclopropylmethyl)amino)-3-methoxypicolinoyl)cyclopropanecarboxylic acid]
– | 61 nM | COc1cc(N(CC2CC2)c2ccc(Cl)c3ccccc23)ccc1C(=O)C1CC1C(=O)O (stereo not shown) [Example 47, 2-(4-((4-Chloronaphthalen-1-yl)(cyclopropylmethyl)amino)-2-methoxybenzoyl)cyclopropanecarboxylic acid]

SMILES | IC50 [1] | IC50 [2]
COc1cc(N(CC2CC2)c2ccc3c4c(cccc24)CC3)cnc1C(=O)C1CC1C(=O)O (stereo not shown) [Example 36, 2-(5-((Cyclopropylmethyl)(1,2-dihydroacenaphthylen-5-yl)amino)-3-methoxypicolinoyl)cyclopropanecarboxylic acid] | – | 9 nM
COc1cc(N(Cc2c(C)ccc3ccccc23)CC2CC2)cnc1C(=O)C1CC1C(=O)O (stereo not shown) [Example 23, 2-(5-((Cyclopropylmethyl)((2-methylnaphthalen-1-yl)methyl)amino)-3-methoxypicolinoyl)cyclopropanecarboxylic acid] | – | 1840 nM

Source: patent US20160326143A1, “COMPOUNDS AND USES” (AstraZeneca AB, priority 2015, published 2016)
